The values below come from patent US20260125346A1, “Isoquinolinone Derivatives and 4H-Quinolizinone Derivatives and Pharmaceutical Compositions Thereof for the Treatment of Disease” (BeOne Medicines I GmbH, priority 2023, published 2026).

One test concerns WT cell line SK-BR-3. The test can be described thus: Phospho-AKT (Ser473) Inhibition Assay (HTRF), SK-BR-3. The conditions noted are these: Homo sapiens; SK-BR-3, 1 hour treatment; read-out: p-AKT Inhibition assay (S473) IC50 SK-BR-3. It is filed as cell-based. How it is done:
The SK-BR-3 (ATCC, HTB-30) cell line was obtained from the American Type Culture Collection. Cells were maintained in McCoy' 5A medium (Gibco, REF #16600108) supplemented with 10% Fetal Bovine Serum. Cultures were maintained in a humidified incubator at 37° C. under 5% CO2/95% air.
(§1) Phospho-AKT Inhibition Assay. HTRF Phospho-AKT (Ser473) detection kit (Cisbio, REF #64AKSPEH) was used in phosphor-AKT inhibition assay. For compound screening, PI3Kα H1047R mutated cell line T-47D and WT cell line SK-BR-3 cells were seeded at a density of 3×10^4 cells per well in 96 well plate (Costar, REF #3599) in 95 μL of assay medium (MEM medium (Gibco, REF #12561-056) with 1×NEAA (Gibco, REF #11140-050), 1 mM sodium pyruvate (Gibco, REF #11360-070), and 1 g/ml human insulin (Topscience, REF #T8221)), overnight. Compounds dissolved in 10 mM stock solutions in DMSO were serially diluted 1:3 in DMSO to generate an 11-point dilution series and plated using an INTEGRA ASSIST PLUS pipetting robot. A 20× intermediate compound dilution plate in RPMI1640 medium (200 M starting compound concentration in 2% DMSO) was then prepared. Five μL of intermediate serially diluted compounds were added to the cell plate to final concentrations ranging from […] to 0.1 nM in 0.1% DMSO. 0.1% DMSO alone was used to establish the maximum signal and GDC0077 at final concentration of 10 μM was used as a reference compound for minimum signal. After 1 hour treatment, removed medium and added 50 μL of supplemented lysis buffer (1×) immediately. Incubated for at least 30 minutes at room temperature under shaking. Transferred 16 μL of cell lysate from the 96-well cell-culture plate to a 384-white detection plate (PerkinElmer, Optiplate 384, 6007299). Added 4 μL of premixed antibody solutions prepared in the detection buffer. Incubated 4 hours at room temperature in dark. The plates were read on PHERAstar FSX Microplate reader (BMG LABTECH, Inc.) using standard HTRF settings.
(§2) Relative IC50 values were determined using luminescence units by calculating percent inhibition with respect to the in-plate “MIN” (GDC0077 reference control) and “MAX” (DMSO) controls. The data were analyzed using a 4-parameter nonlinear logistic equation (four-parameter logistic concentration-response curve): Y=bottom+[(top−bottom)/1+(X/IC50) slope] • where Y=% inhibition, X=concentration of inhibitor, bottom=minimum value of y attained by curve-fit, top=maximum value of y attained by curve-fit and slope=steepness of curve at the IC50.
For orientation: In TR-FRET formats the signal depends on donor and acceptor labels being close together.

In test [1] the target is PI3Kα (p110/p85) kinase (wild type, "WT") (Homo sapiens, UniProt P42336). The experiment in a line: PI3Kα (p110/p85) kinase ADP-Glo Assay. It is filed as biochemical. To be noted: 25 uM ATP. How it is done: PI3Kα (p110/p85) kinase ADP-Glo Assay. Certain compounds disclosed herein were tested for inhibition of PI3Kα (p110/p85) kinase (wild type, “WT”) in assays based on the ADP-Glo™ Kinase Assay methodology. The assays were carried out in 384-well white plates in a reaction mixture containing PI3Kα (p110/p85) kinase, 25 µM ATP, 5.35 µg/mL PI(4,5)P2:PS Lipid Kinase Substrate and […] compound in buffer containing 50 mM HEPES pH7.5, 50 mM NaCl, 3 mM MgCl2, 0.0025% BSA and 2 mM DTT. PI3Kα (p110/p85) kinase was incubated with Lipid Kinase Substrate and compound for 30 minutes at room temperature and the reaction was initiated by the addition of ATP. After reaction at room temperature for 120 minutes, ADP-Glo™ reagents were added to terminate the kinase reaction and deplete the remaining ATP according to the manufacture's instruction (Promega Corporation). After incubation at room temperature for 1 hour, Kinase Detection Reagent (prepared by reconstituting the lyophilized Kinase Detection Substrate with Kinase Detection Buffer of the kit) was added to convert the ADP to ATP and to allow for the newly synthesized ATP to be measured using a luciferase/luciferin reaction. After incubation at room temperature for 0.5 hour, chemiluminescence signals were recorded on a PHERAstar FSX plate reader (BMG Labtech). The chemiluminescence generated in this assay correlates to the amount of ADP generated in the kinase assay, indicating kinase activity. […] The IC50 for each compound was derived from fitting the data to the four-parameter logistic equation by Dotmatics.
Sequence of PI3Kα (p110/p85) kinase (wild type, "WT") (P42336 whole entry): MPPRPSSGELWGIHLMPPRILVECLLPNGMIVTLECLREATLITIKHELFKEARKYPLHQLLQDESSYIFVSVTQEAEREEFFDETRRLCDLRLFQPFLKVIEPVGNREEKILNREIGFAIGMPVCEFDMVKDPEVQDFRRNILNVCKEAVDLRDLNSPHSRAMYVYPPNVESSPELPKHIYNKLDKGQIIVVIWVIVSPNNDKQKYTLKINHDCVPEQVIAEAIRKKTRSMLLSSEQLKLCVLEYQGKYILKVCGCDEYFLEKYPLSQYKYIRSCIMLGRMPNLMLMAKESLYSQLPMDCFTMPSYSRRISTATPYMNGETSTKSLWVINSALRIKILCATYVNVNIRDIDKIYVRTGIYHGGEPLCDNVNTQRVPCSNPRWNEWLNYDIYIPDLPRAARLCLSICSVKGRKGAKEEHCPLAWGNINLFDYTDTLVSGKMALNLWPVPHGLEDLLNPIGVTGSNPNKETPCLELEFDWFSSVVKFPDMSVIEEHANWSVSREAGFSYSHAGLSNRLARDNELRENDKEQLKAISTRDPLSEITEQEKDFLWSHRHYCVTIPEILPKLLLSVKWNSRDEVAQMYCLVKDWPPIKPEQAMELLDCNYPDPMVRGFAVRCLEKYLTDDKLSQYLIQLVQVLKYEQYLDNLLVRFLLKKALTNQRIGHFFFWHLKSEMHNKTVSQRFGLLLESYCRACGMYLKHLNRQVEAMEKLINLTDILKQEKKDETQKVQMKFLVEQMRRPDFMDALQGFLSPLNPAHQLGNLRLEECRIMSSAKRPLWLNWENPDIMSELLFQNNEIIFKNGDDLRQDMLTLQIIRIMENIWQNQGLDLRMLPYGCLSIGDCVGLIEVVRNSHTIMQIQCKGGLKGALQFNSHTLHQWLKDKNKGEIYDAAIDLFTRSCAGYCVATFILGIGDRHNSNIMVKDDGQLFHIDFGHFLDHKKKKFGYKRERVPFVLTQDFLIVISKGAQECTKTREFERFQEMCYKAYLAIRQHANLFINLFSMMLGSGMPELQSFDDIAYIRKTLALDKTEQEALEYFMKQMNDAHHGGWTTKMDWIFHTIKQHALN
Sequence of PI3Kα (p110/p85) kinase (wild type, "WT") (P27986 whole entry partner): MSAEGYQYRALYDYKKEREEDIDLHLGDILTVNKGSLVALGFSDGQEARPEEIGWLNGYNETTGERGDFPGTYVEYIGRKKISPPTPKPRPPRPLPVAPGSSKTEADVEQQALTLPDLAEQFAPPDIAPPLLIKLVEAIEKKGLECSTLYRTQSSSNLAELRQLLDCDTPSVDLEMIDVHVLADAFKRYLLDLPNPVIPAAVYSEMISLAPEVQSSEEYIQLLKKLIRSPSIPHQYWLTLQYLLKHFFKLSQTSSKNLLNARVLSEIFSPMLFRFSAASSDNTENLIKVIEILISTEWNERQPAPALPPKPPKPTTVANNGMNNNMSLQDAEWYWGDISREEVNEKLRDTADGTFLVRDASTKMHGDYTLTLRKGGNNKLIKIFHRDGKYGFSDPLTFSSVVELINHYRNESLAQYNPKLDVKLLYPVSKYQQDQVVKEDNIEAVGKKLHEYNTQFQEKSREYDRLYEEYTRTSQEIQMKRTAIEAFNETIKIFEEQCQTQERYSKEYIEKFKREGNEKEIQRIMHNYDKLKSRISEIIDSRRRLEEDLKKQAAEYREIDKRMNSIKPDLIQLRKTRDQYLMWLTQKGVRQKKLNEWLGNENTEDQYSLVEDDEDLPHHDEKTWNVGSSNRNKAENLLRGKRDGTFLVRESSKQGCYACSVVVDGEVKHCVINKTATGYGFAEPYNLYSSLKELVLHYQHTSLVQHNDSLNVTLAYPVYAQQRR
On the technique in general: In ADP-Glo the light output rises with the ADP produced.

Test [2] concerns the target PI3Kα (p110[H1047R]/p85) kinase (Homo sapiens, UniProt P42336, H1047R). The test can be described thus: PI3Kα (p110[H1047R]/p85) kinase ADP-Glo Assay. It is filed as biochemical. The conditions noted are these: 25 uM ATP; for selectivity: WT/H1047R: ADP-Glo Assay IC50 ratio. As to the method: PI3Kα (p110[H1047R]/p85) kinase ADP-Glo Assay. Certain compounds disclosed herein were tested for inhibition of PI3Kα (p110[H1047R]/p85) kinase in assays based on the ADP-Glo™ Kinase Assay methodology. The assays were carried out in 384-well white plates in a reaction mixture containing PI3Kα (p110[H1047R]/p85) kinase, 25 µM ATP, 5.35 µg/ml PI(4,5)P2:PS Lipid Kinase Substrate and […] compound in buffer containing 50 mM HEPES pH7.5, 50 mM NaCl, 3 mM MgCl2, 0.0025% BSA and 2 mM DTT. PI3Kα (p110[H1047R]/p85) kinase was incubated with Lipid Kinase Substrate and compound for 30 minutes at room temperature and the reaction was initiated by the addition of ATP.
After reaction at room temperature for 120 minutes, ADP-Glo™ reagents were added to terminate the kinase reaction and deplete the remaining ATP according to the manufacture's instruction (Promega Corporation). After incubation at room temperature for 1 hour, Kinase Detection Reagent (prepared by reconstituting the lyophilized Kinase Detection Substrate with Kinase Detection Buffer of the kit) was added to convert the ADP to ATP and to allow for the newly synthesized ATP to be measured using a luciferase/luciferin reaction. After incubation at room temperature for 0.5 hour, chemiluminescence signals were recorded on a PHERAstar FSX plate reader (BMG Labtech). The chemiluminescence generated in this assay correlates to the amount of ADP generated in the kinase assay, indicating kinase activity. […] The IC50 for each compound was derived from fitting the data to the four-parameter logistic equation by Dotmatics.

Test [3] deals with PI3Kα H1047R mutated cell line T-47D. The test can be described thus: Phospho-AKT (Ser473) Inhibition Assay (HTRF), T-47D. It is filed as cell-based. To be noted: for IC50: Homo sapiens, T47D, T-47D, 1 hour treatment, read-out: p-AKT Inhibition assay (S473) IC50 T-47D; for Selectivity: SK-BR-3/T-47D (p-AKT): p-AKT (S473) IC50 ratio. As to the method: (§3) Cell Culture Maintenance. The T-47D (ATCC, HTB-133) cell line was obtained from the American Type Culture Collection. Cells were maintained in RPMI1640 medium (Gibco, REF #22400105) supplemented with 10% Fetal Bovine Serum (Gibco, REF #10091148). Cultures were maintained in a humidified incubator at 37° C. under 5% CO2/95% air.
as §1, §2

Test [4] concerns PI3Kα H1047R mutated cell line T-47D cells. The test can be described thus: Cell Proliferation Assay (CellTiter-Glo), T-47D. The conditions noted are these: Homo sapiens, T47D, 72 h; T-47D, 3 days treatment. The test is classed as cell-based. How it is done:
as §3
Cell Proliferation Assay. PI3Kα H1047R mutated cell line T-47D cells and WT cell line SK-BR-3 were seeded at a density of 3×10^3 cells per well in 96 well plate (Xinyou Biotechnology, 062096) in 95 μL of culture medium, overnight. Compounds dissolved in 10 mM stock solutions in DMSO were serially diluted 1:3 in DMSO to generate a 9-point dilution series and plated using an INTEGRA ASSIST Plus pipetting robot. A 20× intermediate compound dilution plate in RPMI1640 medium (200 M starting compound concentration in 2% DMSO) was then prepared. Five μL of intermediate serially diluted compounds were added to the cell plate to final concentrations ranging from […] to 1 nM in 0.1% DMSO. 0.1% DMSO alone was used to establish the maximum signal and medium without cells was for minimum signal. After 3 days treatment, equilibrated the plate and its contents at room temperature for approximately 30 minutes. Added 30 μL CellTiter-Glo® Reagent (Promega, REF #G7571) to each well. Then mixed contents for 5 min on plate shaker to induce cell lysis. Incubated at room temperature for 10 minutes to stabilize luminescent signal. The plates were read on PHERAstar FSX Microplate reader using standard luminescence settings.
Relative IC50 values were determined using luminescence units by calculating percent inhibition with respect to the in-plate “MIN” (medium only) and “MAX” (0.1% DMSO) controls. The data were analyzed using a 4-parameter nonlinear logistic equation (four-parameter logistic concentration-response curve): Y=bottom+[(top−bottom)/1+(X/IC50) slope] • where Y=% inhibition, X=concentration of inhibitor, bottom=minimum value of y attained by curve-fit, top=maximum value of y attained by curve-fit and slope=steepness of curve at the IC50.
(In ATP-based viability assays light output follows the ATP content of the culture.)

SMILES strings stand for the structures. Where only a bound is given, the exact number is not on record here.

Sequence of PI3Kα (p110[H1047R]/p85) kinase (P42336 whole entry H1047R): as the sequence (P42336 whole entry) above, with H1047R counted along it
Sequence of PI3Kα (p110[H1047R]/p85) kinase (P27986 whole entry partner): as the sequence (P27986 whole entry partner) above

As to `Cc1cc(C(C)Nc2ccccc2C(=O)O)c2cc(-c3ccccc3)[nH]c(=O)c2c1` (stereo not drawn) [Example 26, 2-((1-(7-methyl-1-oxo-3-phenyl-1,2-dihydroisoquinolin-5-yl)ethyl)amino)benzoic acid], the IC50 (usually the concentration at which inhibition is half-maximal) in the test with WT cell line SK-BR-3 is above 10 µM; in test [1], 6.25 µM; in test [2] it was 0.158 µM; in test [3], 0.05 µM. In test [2], the “selectivity: WT/H1047R” value is given as 40. Moreover, the “Selectivity: SK-BR-3/T-47D (p-AKT)” value in test [3] is above 198.

Regarding `CC#Cc1cc2c(C(C)Nc3ccccc3C(=O)O)cc(C)cc2c(=O)n1C` (stereo not drawn) [Example 27, 2-((1-(2,7-dimethyl-1-oxo-3-(prop-1-yn-1-yl)-1,2-dihydroisoquinolin-5-yl)ethyl)amino)benzoic acid], the IC50 was above 10 µM in the test on WT cell line SK-BR-3, 60.2 µM in test [1], 0.762 µM in test [2] and 0.245 µM in test [3]. Also, the “selectivity: WT/H1047R” value in test [2] is on record as 79. In test [3], the “Selectivity: SK-BR-3/T-47D (p-AKT)” value is reported as above 21.

Consider `Cc1cc(C(C)Nc2ccccc2C(=O)O)c2cc(C(=O)Nc3ccccc3)n(C)c(=O)c2c1` (stereo not drawn) [Example 42, 2-((1-(2,7-dimethyl-1-oxo-3-(phenylcarbamoyl)-1,2-dihydroisoquinolin-5-yl)ethyl)amino)benzoic acid], for which the half-inhibitory concentration (IC50) was 3.53 µM in test [4], 71.6 µM in test [1], 0.971 µM in test [2] and 0.298 µM in test [3]. Further, the “selectivity: WT/H1047R” value in test [2] is 73.8.

`Cc1cc(C(C)Nc2cnccc2C(=O)O)c2cc(-c3ccc(F)cc3)n(C)c(=O)c2c1` (stereo not drawn) [Example 54, 3-((1-(3-(4-fluorophenyl)-2,7-dimethyl-1-oxo-1,2-dihydroisoquinolin-5-yl)ethyl)amino)isonicotinic acid]: the results for the half-inhibitory concentration (IC50) in test [1] and in test [2] were above 100 µM and 9.29 µM, respectively. For the same compound, in test [2], the “selectivity: WT/H1047R” value is recorded as above 10.

For the compound `COc1ncc(-c2cc3c([C@H](C)Nc4ccccc4C(=O)O)cc(C)cc3c(=O)n2C)cc1F` [Example 60, (S)-2-((1-(3-(5-fluoro-6-methoxypyridin-3-yl)-2,7-dimethyl-1-oxo-1,2-dihydroisoquinolin-5-yl)ethyl)amino)benzoic acid], the IC50 in test [1] is 24.1 µM; in test [2], 16.4 µM. The “selectivity: WT/H1047R” value in test [2] was 1.5.

Take `Cc1cc([C@H](C)Nc2ccccc2C(=O)O)c2cc(-c3ccc(F)cc3)n(CC#N)c(=O)c2c1` [Example 65, (S)-2-((1-(2-(cyanomethyl)-3-(4-fluorophenyl)-7-methyl-1-oxo-1,2-dihydroisoquinolin-5-yl)ethyl)amino)benzoic acid]: the IC50 in test [1] and in test [2] was above 100 µM each time.

For `Cc1cc([C@H](C)Nc2ccccc2C(=O)O)c2cc(-c3cnc(C(C)(C)O)nc3)n(C)c(=O)c2c1` [Example 68, (S)-2-((1-(3-(2-(2-hydroxypropan-2-yl)pyrimidin-5-yl)-2,7-dimethyl-1-oxo-1,2-dihydroisoquinolin-5-yl)ethyl)amino)benzoic acid], in test [1], 34.3 µM corresponded to half-maximal inhibition (IC50). In addition, in test [2], the IC50 amounted to 21.7 µM and the “selectivity: WT/H1047R” value is reported as 1.6.

`Cc1cc(C(C)Nc2ccccc2C(=O)O)c2cc(-c3ccccc3C(N)=O)n(C)c(=O)c2c1` (stereo not drawn) [Example 90, 2-((1-(3-(2-carbamoylphenyl)-2,7-dimethyl-1-oxo-1,2-dihydroisoquinolin-5-yl)ethyl)amino)benzoic acid] returned an IC50 in test [1] of 88.8 µM. Moreover, in test [2], the IC50 amounted to 1.93 µM and the “selectivity: WT/H1047R” value is given as 46.0.

As for `Cc1cc(C(C)Nc2csc3ccccc23)c2cc(-c3ccccc3)n(C)c(=O)c2c1` (stereo not drawn) [Example 93, 5-(1-(benzo[b]thiophen-3-ylamino)ethyl)-2,7-dimethyl-3-phenylisoquinolin-1(2H)-one], the IC50 in test [1] and in test [2] was above 100 µM throughout.

Consider `Cc1cc([C@@H](C)Nc2ccccc2C(=O)O)c2cc(-c3ccc(C(C)(C)O)cc3)n(C)c(=O)c2c1` [Example 98, (R)-2-((1-(3-(4-(2-hydroxypropan-2-yl)phenyl)-2,7-dimethyl-1-oxo-1,2-dihydroisoquinolin-5-yl)ethyl)amino)benzoic acid], for which the IC50 amounted to 7.36 µM in test [1] and 0.432 µM in test [2]. Besides, the “selectivity: WT/H1047R” value in test [2] stood at 17.0.
